# Results: patent US20250049776A1, “AUTOPHAGY INDUCING COMPOUNDS AND USES THEREOF, IN PARTICULAR FOR A SYSTEMIC TREATMENT OF DISEASES AND CONDITIONS” (Samsara Therapeutics Inc., priority 2021, published 2025)
# Structures can show the parent of a compound that is named as a salt.
# System: C3-PMP22 transgenic mice (B6.Cg-Tg(PMP22)C3Fbas/J)
# Experiment: Mouse model of Charcot-Marie-Tooth 1A (CMT1A)
# Format: in vivo
# Source text: Compound 163 was selected as an example compound of this invention to be evaluated in this model. This model (run by In vivex SAS, France) uses C3-PMP22 transgenic mice (B6·Cg-Tg(PMP22)C3Fbas/J) which express three copies of a wild-type human peripheral myelin protein 22 (PMP22) gene. These mice present an age-dependent demyelinating neuropathy characterized by predominantly distal loss of strength and sensation. C3-PMP mice show no overt clinical signs at 3 weeks and develop mild neuromuscular impairment in an age-dependent manner. They have stable, low nerve conduction velocities similar to adults with human CMT1A. Myelination is delayed in these mice, and they contain reduced numbers of myelinated fibres at 3 weeks of age.
# • Animal characteristics: • Sex/Species/Strain: B6.Cg-Tg(PMP22)C3Fbas/JMale • Age: 3 weeks old • Supplier: Jackson Laboratory (USA) • Approximate weight at initiation of treatment: 19.0 g±2.5 g • Animal number: 6 mice per group • Animal identification: At the beginning of the study, animals were identified with a number on the tail. […] Clinical signs and mortality were recorded daily. Body weight was determined twice a week. • Study Outline: • Dose: 30 mg/kg • Administration: Oral gavage • Readouts: • i) Rotarod (neuromuscular performance) • ii) Sciatic nerve electrophysiology (EMG) • iii) PMP22 analysis by western blot • iv) Histology of sciatic nerve • Experimental time duration: Readouts measures at 1 and 2 months old. • Baseline rotarod and EMG readouts at 1 month old • Rotarod and EMG readouts at 2 months old • Western blot for PMP22 and histopathology of sciatic nerve at 2 months old • Vehicle used for test Compound 163: 10% DMSO/5% Cremophor R H 40 and 85% of 10% HP-β-CD in water (v/v) • Vehicle control group: vehicle only (non-treated control) • Statistics: Statistical analyses were performed using Prism software. A probability less than 5% (p<0.05) was considered as significant.
# Sciatic nerve electrophysiology. Electromyography was performed on mice anesthetized with ketamine/xylazine mixture. A pair of steel needle electrodes (AD Instruments, MLA1302) were placed subcutaneously along the nerve at the sciatic notch (proximal stimulation). A second pair of electrodes were placed along the tibial nerve above the ankle (distal stimulation). Supramaximal square-wave pulses, lasting 10 ms at 1 mA were delivered using a PowerLab 26T (AD Instruments). Compound muscle action potential (CMAP) was recorded from the intrinsic foot muscles using steel electrodes. Both amplitudes and latencies of CMAP were determined. The distance between the 2 sites of stimulation was measured alongside the skin surface with fully extended legs, and nerve conduction velocities (NCVs) were calculated automatically from sciatic nerve latency measurements using Excel.
# Rotarod. A rotating rod apparatus (Bioseb, France) was used to measure neuromuscular coordination and balance. Mice were first given a pretraining trial to familiarize them with the rotating rod. […] Each animal underwent 3 trials a day. For each day, values from the 3 trials were averaged for each animal, and then averaged for each group.
# After electrophysiology analysis and animal sacrifice, the left sciatic nerve of all animals were sampled, solubilized in 4° C. RIPA lysis buffer completed with protease inhibitors (Fisher Scientific, France), sonicated three times during 10 s on ice (Microson ultrasonic cell disruptorXL, Microsonic) and centrifuged for 30 min at 10,000 rpm at 4° C. 50 μL of the supernatant was sampled and total protein was quantified by NanoDrop using bovine serum albumin dilutions as standard. Then, ten micrograms of protein samples were denatured using Laemmli/β-mercaptoethanol (Merck, S3401) incubation at 95° C. during 10 minutes, separated on a denaturing 10% SDS-polyacrylamide gel and transferred onto nitrocellulose membranes. Membranes were blocked for 60 min with 5 mL of Licor Blocking Buffer. […]
# [1] = CMT1A mice at 2 months old, 30 mg/kg oral gavage twice a day during one month
# [2] = sciatic nerve histology, CMT1A mice at 2 months old, 30 mg/kg oral gavage twice a day
compound,measurement,setting,value
"CC(C)N(C(=O)c1csc(-c2cnn(-c3ccccc3)c2)n1)C1CCNCC1 [Compound 163, N-isopropyl-2-(1-phenyl-1H-pyrazol-4-yl)-N-(piperidin-4-yl)thiazole-4-carboxamide hydrochloride]",increase in CMAP amplitude compared to the vehicle group,[1],86%
same,increase in mean rotarod latency compared to the vehicle group,[1],133%
same,increase in NCV compared to the vehicle group,"CMT1A mice at 2 months old, 30 mg/kg oral gavage twice a day, not statistically significant",94%
same,differences on body weight between groups,"CMT1A mice, 30 mg/kg oral gavage twice a day",No significant differences
same,decrease in the g-ratio compared to the vehicle group,[2],22%
same,increase in the number of myelinating axons compared to the vehicle group,[2],64%
same,increase in the axonal diameter compared to the vehicle group,"sciatic nerve histology, CMT1A mice at 2 months old, 30 mg/kg oral gavage twice a day, not statistically significant",45%
same,decrease in the level of PMP22 compared to the vehicle group,"sciatic nerve western blot, CMT1A mice at 2 months old, 30 mg/kg oral gavage twice a day",33%
